Test results as given in publication PMC5218480 (PLoS ONE, 2017).

Test system: MV-4-11 cells
Assay: Gene expression microarray analysis (Affymetrix PrimeView) and GSEA
Assay type: cell-based, human
Set-up: RFU PODN (11730768_x_at) / Fold change /veh PODN (11730768_x_at) / RFU LINC00158 (11744669_a_at) / Fold change /veh LINC00158 (11744669_a_at) / RFU DUSP10 (11751237_a_at) / Fold change /veh DUSP10 (11751237_a_at) / RFU ID3 (11757404_x_at) / Fold change /veh ID3 (11757404_x_at) / RFU PLEKHG5 (11737974_s_at) / Fold change /veh PLEKHG5 (11737974_s_at) / RFU LRRC4B (11730491_at) / Fold change /veh LRRC4B (11730491_at) / RFU GIMAP4 (11747438_a_at) / Fold change /veh GIMAP4 (11747438_a_at) / RFU KRT8 (11758183_x_at) / Fold change /veh KRT8 (11758183_x_at) / RFU CNN1 (11734310_a_at) / Fold change /veh CNN1 (11734310_a_at) / RFU VPS37D (11726825_at) / Fold change /veh VPS37D (11726825_at) / RFU C10orf10 (11716522_x_at) / Fold change /veh C10orf10 (11716522_x_at) / RFU KIR2DL2 /// KIR2DL4 /// KIR2DL5A /// KIR2DL5B /// KIR2DS1 /// KIR2DS2 /// KIR2DS3 /// KIR2DS4 /// KIR3DL3 /// KIR3DL3 /// KIR3DS1 (11738374_at) / Fold change /veh KIR2DL2 /// KIR2DL4 /// KIR2DL5A /// KIR2DL5B /// KIR2DS1 /// KIR2DS2 /// KIR2DS3 /// KIR2DS4 /// KIR3DL3 /// KIR3DL3 /// KIR3DS1 (11738374_at) / RFU C1QL1 (11718748_at) / Fold change /veh C1QL1 (11718748_at) / RFU TMPRSS4 (11747572_a_at) / Fold change /veh TMPRSS4 (11747572_a_at) / RFU HAMP (11756126_x_at) / Fold change /veh HAMP (11756126_x_at) / RFU RNFT2 (11725882_a_at) / Fold change /veh RNFT2 (11725882_a_at) / RFU NR4A2 (11747474_a_at) / Fold change /veh NR4A2 (11747474_a_at) / RFU ABCC12 (11746883_a_at) / Fold change /veh ABCC12 (11746883_a_at) / RFU TMEM136 (11760407_x_at) / Fold change /veh TMEM136 (11760407_x_at) / RFU CLDN22 /// WWC2 (11732394_at) / Fold change /veh CLDN22 /// WWC2 (11732394_at) / RFU HLA-DPB1 (11760878_x_at) / Fold change /veh HLA-DPB1 (11760878_x_at) / RFU SPINT1 (11716480_a_at) / Fold change /veh SPINT1 (11716480_a_at) / RFU GAP43 (11754022_s_at) / Fold change /veh GAP43 (11754022_s_at) / RFU A4GNT (11735810_at) / Fold change /veh A4GNT (11735810_at) / RFU PRB3 (11715151_x_at) / Fold change /veh PRB3 (11715151_x_at) / RFU TUBB4B (11761932_at) / Fold change /veh TUBB4B (11761932_at) / RFU CAPN14 (11732068_a_at) / Fold change /veh CAPN14 (11732068_a_at) / RFU TMCC2 (11721928_a_at) / Fold change /veh TMCC2 (11721928_a_at) / RFU IRGQ (11745062_a_at) / Fold change /veh IRGQ (11745062_a_at) / RFU FAM174B (11720279_a_at) / Fold change /veh FAM174B (11720279_a_at) / RFU TMPRSS4 (11748680_a_at) / Fold change /veh TMPRSS4 (11748680_a_at) / RFU FAM212B (11763350_a_at) / Fold change /veh FAM212B (11763350_a_at) / RFU PLEKHG5 (11743358_a_at) / Fold change /veh PLEKHG5 (11743358_a_at) / RFU ZSCAN30 (11745921_a_at) / Fold change /veh ZSCAN30 (11745921_a_at) / RFU CMKLR1 (11741424_a_at) / Fold change /veh CMKLR1 (11741424_a_at) / RFU LOC101060620 /// MAPK8IP1 (11723275_at) / Fold change /veh LOC101060620 /// MAPK8IP1 (11723275_at) / RFU SPTSSB (11747773_x_at) / Fold change /veh SPTSSB (11747773_x_at) / RFU PRSS12 (11739890_at) / Fold change /veh PRSS12 (11739890_at) / RFU BIN1 (11741810_x_at) / Fold change /veh BIN1 (11741810_x_at) / RFU WNT11 (11732464_a_at) / Fold change /veh WNT11 (11732464_a_at) / RFU C10orf10 (11716521_a_at) / Fold change /veh C10orf10 (11716521_a_at) / RFU C5orf56 (11738089_at) / Fold change /veh C5orf56 (11738089_at) / RFU CYB561 (11721691_x_at) / Fold change /veh CYB561 (11721691_x_at) / RFU ANKRD19P (11752326_a_at) / Fold change /veh ANKRD19P (11752326_a_at) / RFU OR2T12 /// OR2T33 /// OR2T8 (11738714_s_at) / Fold change /veh OR2T12 /// OR2T33 /// OR2T8 (11738714_s_at) / RFU VCAN (11748164_a_at) / Fold change /veh VCAN (11748164_a_at) / RFU JSRP1 (11732532_at) / Fold change /veh JSRP1 (11732532_at) / RFU KRTAP10-11 (11738290_x_at) / Fold change /veh KRTAP10-11 (11738290_x_at) / RFU MYO3A (11730013_a_at) / Fold change /veh MYO3A (11730013_a_at) / RFU EBF3 (11725865_a_at) / Fold change /veh EBF3 (11725865_a_at) / RFU CAMK2N1 (11719241_x_at) / Fold change /veh CAMK2N1 (11719241_x_at) / RFU C5orf56 (11738088_a_at) / Fold change /veh C5orf56 (11738088_a_at) / RFU OLFML3 (11715873_a_at) / Fold change /veh OLFML3 (11715873_a_at) / RFU LOC100653217 /// NTM (11731650_a_at) / Fold change /veh LOC100653217 /// NTM (11731650_a_at) / RFU MAPK11 (11762145_a_at) / Fold change /veh MAPK11 (11762145_a_at) / RFU FIZ1 (11724087_x_at) / Fold change /veh FIZ1 (11724087_x_at) / RFU OASL (11726364_x_at) / Fold change /veh OASL (11726364_x_at) / RFU SOX15 (11748057_x_at) / Fold change /veh SOX15 (11748057_x_at) / RFU CD79A (11719716_a_at) / Fold change /veh CD79A (11719716_a_at) / RFU HIST1H1D (11736915_at) / Fold change /veh HIST1H1D (11736915_at) / RFU CASKIN2 (11723855_a_at) / Fold change /veh CASKIN2 (11723855_a_at) / RFU LOC730098 (11760151_x_at) / Fold change /veh LOC730098 (11760151_x_at) / RFU OR4N2 (11742367_at) / Fold change /veh OR4N2 (11742367_at) / RFU PRRT2 (11749266_a_at) / Fold change /veh PRRT2 (11749266_a_at) / RFU SNX32 (11753110_a_at) / Fold change /veh SNX32 (11753110_a_at) / RFU CDHR5 (11726645_a_at) / Fold change /veh CDHR5 (11726645_a_at) / RFU RCAN1 (11760418_a_at) / Fold change /veh RCAN1 (11760418_a_at) / RFU FAM167A (11723789_a_at) / Fold change /veh FAM167A (11723789_a_at) / RFU FAM26E (11764081_at) / Fold change /veh FAM26E (11764081_at) / RFU ISYNA1 (11749810_s_at) / Fold change /veh ISYNA1 (11749810_s_at) / RFU ACY1 (11761880_at) / Fold change /veh ACY1 (11761880_at) / RFU 11764098_at / Fold change /veh 11764098_at / RFU SAMD14 (11745864_x_at) / Fold change /veh SAMD14 (11745864_x_at) / RFU NPB (11741838_a_at) / Fold change /veh NPB (11741838_a_at) / RFU TMPRSS6 (11731388_a_at) / Fold change /veh TMPRSS6 (11731388_a_at) / RFU KRTAP10-2 (11738614_at) / Fold change /veh KRTAP10-2 (11738614_at) / RFU ARHGAP8 /// PRR5-ARHGAP8 (11727945_x_at) / Fold change /veh ARHGAP8 /// PRR5-ARHGAP8 (11727945_x_at) / RFU KRTAP5-7 /// NADSYN1 (11734609_at) / Fold change /veh KRTAP5-7 /// NADSYN1 (11734609_at) / RFU RASL12 (11751679_a_at) / Fold change /veh RASL12 (11751679_a_at) / RFU CDKN2B (11736163_a_at) / Fold change /veh CDKN2B (11736163_a_at) / RFU PRF1 (11729649_at) / Fold change /veh PRF1 (11729649_at) / RFU, ZNF638 /// ZNF638-IT1 / Fold change vs veh, ZNF638 /// ZNF638-IT1 / RFU, PANK3 / Fold change vs veh, PANK3 / RFU, SH3YL1 / Fold change vs veh, SH3YL1 / RFU, ZEB2 / Fold change vs veh, ZEB2 / RFU, NRIP1 / Fold change vs veh, NRIP1 / RFU, PTTG1IP / Fold change vs veh, PTTG1IP / RFU, CAPN2 / Fold change vs veh, CAPN2 / RFU, MED14 / Fold change vs veh, MED14 / RFU, SNORA58 / Fold change vs veh, SNORA58 / RFU, C1orf63 / Fold change vs veh, C1orf63 / RFU, LRRFIP1 / Fold change vs veh, LRRFIP1 / RFU, NDUFAF7 / Fold change vs veh, NDUFAF7 / RFU, SLC12A2 / Fold change vs veh, SLC12A2 / RFU, IBTK / Fold change vs veh, IBTK / RFU, ESF1 / Fold change vs veh, ESF1 / Fold change vs veh, TMEM50B / RFU, TAOK1 / Fold change vs veh, TAOK1 / RFU, ACBD3 / Fold change vs veh, ACBD3 / RFU, TMA16 / Fold change vs veh, TMA16 / RFU, RWDD3 / Fold change vs veh, RWDD3 / RFU, BCAT1 / Fold change vs veh, BCAT1 / RFU, EDEM3 / Fold change vs veh, EDEM3 / RFU, TMEM33 / Fold change vs veh, TMEM33 / RFU, WDR75 / Fold change vs veh, WDR75 / RFU, AHCTF1 / Fold change vs veh, AHCTF1 / RFU, TFRC / Fold change vs veh, TFRC / RFU, ZDHHC17 / Fold change vs veh, ZDHHC17 / RFU, NOM1 / Fold change vs veh, NOM1 / RFU, ARL8B / Fold change vs veh, ARL8B / RFU, ZBTB11 / Fold change vs veh, ZBTB11 / RFU, TAMM41 / Fold change vs veh, TAMM41 / RFU, KIAA1704 /// LOC100996395 / Fold change vs veh, KIAA1704 /// LOC100996395 / RFU, ING1 / Fold change vs veh, ING1 / RFU, TRMT61B / Fold change vs veh, TRMT61B / RFU, FUBP3 / Fold change vs veh, FUBP3 / RFU, TP53 / Fold change vs veh, TP53 / RFU, TNKS2 / Fold change vs veh, TNKS2 / RFU, ZFP14 / Fold change vs veh, ZFP14 / RFU, ACTR2 / Fold change vs veh, ACTR2 / RFU, PPP3R1 / Fold change vs veh, PPP3R1 / RFU, PIK3R1 / Fold change vs veh, PIK3R1 / RFU, HNRNPA1 / Fold change vs veh, HNRNPA1 / RFU, RNF170 / Fold change vs veh, RNF170 / RFU, ZNF28 / Fold change vs veh, ZNF28 / RFU, RNGTT / Fold change vs veh, RNGTT / RFU, OGT / Fold change vs veh, OGT / RFU, BRD1 / Fold change vs veh, BRD1 / RFU, MARS / Fold change vs veh, MARS / RFU, ZNF655 / Fold change vs veh, ZNF655 / RFU, FAHD1 / Fold change vs veh, FAHD1 / RFU, BDP1 / Fold change vs veh, BDP1 / RFU, LRRCC1 / Fold change vs veh, LRRCC1 / RFU, ARID1A / Fold change vs veh, ARID1A / RFU, ZNF146 / Fold change vs veh, ZNF146 / RFU, ZNF330 / Fold change vs veh, ZNF330 / RFU, GPN3 / Fold change vs veh, GPN3 / RFU, C9orf123 / Fold change vs veh, C9orf123 / RFU, N4BP2L2 / Fold change vs veh, N4BP2L2 / RFU, ARFIP1 / Fold change vs veh, ARFIP1 / RFU, FAM179B / Fold change vs veh, FAM179B / RFU, BCL10 / Fold change vs veh, BCL10 / RFU, UHRF1BP1L / Fold change vs veh, UHRF1BP1L / RFU, BET1 / Fold change vs veh, BET1 / RFU, CNOT2 / Fold change vs veh, CNOT2 / RFU, ZNF268 / Fold change vs veh, ZNF268 / Fold change vs veh, ZNF507 / RFU, DGCR2 / Fold change vs veh, DGCR2 / RFU, WDSUB1 / Fold change vs veh, WDSUB1 / Fold change vs veh, HSP90B1 /// MIR3652 / RFU, ADSS / Fold change vs veh, ADSS / RFU, GK / Fold change vs veh, GK / RFU, ZNF148 / Fold change vs veh, ZNF148 / RFU, TAF9 / Fold change vs veh, TAF9 / RFU, SLC1A5 / Fold change vs veh, SLC1A5 / RFU, SLMO2 / Fold change vs veh, SLMO2 / RFU, ABCC4 / Fold change vs veh, ABCC4 / RFU, LOC101060439 /// RAP1B / Fold change vs veh, LOC101060439 /// RAP1B / RFU, RFX7 / Fold change vs veh, RFX7 / RFU, GTPBP10 / Fold change vs veh, GTPBP10 / RFU, CNEP1R1 / Fold change vs veh, CNEP1R1 / RFU, BIVM-ERCC5 /// ERCC5 / Fold change vs veh, BIVM-ERCC5 /// ERCC5 / RFU, ILF3 / Fold change vs veh, ILF3 / RFU 11762660_at / Fold change /veh 11762660_at / RFU VCAN (11757783_s_at) / Fold change /veh VCAN (11757783_s_at) / RFU DDX43 (11728927_at) / Fold change /veh DDX43 (11728927_at) / RFU KRT8 (11758188_x_at) / Fold change /veh KRT8 (11758188_x_at) / RFU NKD1 (11759106_at) / Fold change /veh NKD1 (11759106_at) / RFU SRD5A1 (11742802_a_at) / Fold change /veh SRD5A1 (11742802_a_at) / RFU TPSAB1 /// TPSB2 (11721975_s_at) / Fold change /veh TPSAB1 /// TPSB2 (11721975_s_at) / RFU GSTM3 (11746129_a_at) / Fold change /veh GSTM3 (11746129_a_at) / RFU IL23R (11737362_x_at) / Fold change /veh IL23R (11737362_x_at) / RFU TMEM51 (11727254_a_at) / Fold change /veh TMEM51 (11727254_a_at) / RFU PIWIL2 (11732686_x_at) / Fold change /veh PIWIL2 (11732686_x_at) / RFU ORM1 (11744905_x_at) / Fold change /veh ORM1 (11744905_x_at) / RFU CCDC152 (11743942_at) / Fold change /veh CCDC152 (11743942_at) / RFU ECM1 (11717891_a_at) / Fold change /veh ECM1 (11717891_a_at) / RFU IL23R (11748794_a_at) / Fold change /veh IL23R (11748794_a_at) / RFU TNFAIP8L3 (11732012_x_at) / Fold change /veh TNFAIP8L3 (11732012_x_at) / RFU MBOAT4 (11741988_at) / Fold change /veh MBOAT4 (11741988_at) / RFU 11764193_at / Fold change /veh 11764193_at / RFU TMEM53 (11763286_at) / Fold change /veh TMEM53 (11763286_at) / RFU MAGEB2 (11727129_at) / Fold change /veh MAGEB2 (11727129_at) / RFU TMEM200A (11744735_a_at) / Fold change /veh TMEM200A (11744735_a_at) / RFU CCDC152 (11751479_a_at) / Fold change /veh CCDC152 (11751479_a_at) / RFU FAM211A (11726209_a_at) / Fold change /veh FAM211A (11726209_a_at) / RFU RGS16 (11746705_a_at) / Fold change /veh RGS16 (11746705_a_at) / RFU VCAN (11755009_s_at) / Fold change /veh VCAN (11755009_s_at) / RFU RHOB (11743442_s_at) / Fold change /veh RHOB (11743442_s_at) / RFU RGS16 (11720943_a_at) / Fold change /veh RGS16 (11720943_a_at) / RFU RGS16 (11720944_at) / Fold change /veh RGS16 (11720944_at) / RFU, VPS4B / Fold change vs veh, VPS4B / RFU, CREB1 / Fold change vs veh, CREB1 / RFU, DNAJC13 / Fold change vs veh, DNAJC13 / RFU, GNAQ / Fold change vs veh, GNAQ / RFU, CDK5R1 / Fold change vs veh, CDK5R1 / RFU, ZRANB3 / Fold change vs veh, ZRANB3 / RFU, CUL4A / Fold change vs veh, CUL4A / RFU, CCNY / Fold change vs veh, CCNY / RFU, UFL1 / Fold change vs veh, UFL1 / RFU, COG3 / Fold change vs veh, COG3 / RFU, DIAPH2 / Fold change vs veh, DIAPH2 / RFU, SKA2 / Fold change vs veh, SKA2 / RFU, AFF3 / Fold change vs veh, AFF3 / RFU, LMF1 / Fold change vs veh, LMF1 / RFU, IPO11 / Fold change vs veh, IPO11 / RFU, DFFB / Fold change vs veh, DFFB / RFU, FOXP1 / Fold change vs veh, FOXP1 / RFU, CARD8 / Fold change vs veh, CARD8 / RFU, STRN3 / Fold change vs veh, STRN3 / RFU, ADK / Fold change vs veh, ADK / RFU, RASSF2 / Fold change vs veh, RASSF2 / RFU, WIPF1 / Fold change vs veh, WIPF1 / RFU, LARP1B / Fold change vs veh, LARP1B / RFU, RASA1 / Fold change vs veh, RASA1 / RFU, RB1 / Fold change vs veh, RB1 / RFU, PPFIA1 / Fold change vs veh, PPFIA1 / RFU, MAT2A / Fold change vs veh, MAT2A / RFU, CCT5 / Fold change vs veh, CCT5 / RFU, WDR92 / Fold change vs veh, WDR92 / RFU, CUX1 / Fold change vs veh, CUX1 / RFU, TTC7A / Fold change vs veh, TTC7A / RFU, TMEM135 / Fold change vs veh, TMEM135 / RFU, DEPTOR / Fold change vs veh, DEPTOR / RFU, CPM / Fold change vs veh, CPM / RFU, DNAJB6 / Fold change vs veh, DNAJB6 / RFU, CACNA2D3 / Fold change vs veh, CACNA2D3 / RFU, DTX4 / Fold change vs veh, DTX4 / RFU, TFCP2 / Fold change vs veh, TFCP2 / RFU, GMCL1 /// GMCL1P1 / Fold change vs veh, GMCL1 /// GMCL1P1 / RFU, AEBP2 / Fold change vs veh, AEBP2 / RFU, SNHG1 /// SNORD22 /// SNORD25 /// SNORD26 /// SNORD27 /// SNORD28 /// SNORD29 /// SNORD31 / Fold change vs veh, SNHG1 /// SNORD22 /// SNORD25 /// SNORD26 /// SNORD27 /// SNORD28 /// SNORD29 /// SNORD31 / Fold change (Aza/veh), C12orf56 (ProbeSet 11735607_a_at) / Fold change (ACY-1035/veh), C12orf56 (ProbeSet 11735607_a_at) / Fold change (Aza/veh), FGFR1OP (ProbeSet 11751329_s_at) / Fold change (ACY-1035/veh), FGFR1OP (ProbeSet 11751329_s_at) / Fold change (Aza/veh), VPS36 (ProbeSet 11739960_a_at) / Fold change (ACY-1035/veh), VPS36 (ProbeSet 11739960_a_at) / RFU SYPL1 (11715823_x_at) / Fold change /veh SYPL1 (11715823_x_at) / RFU IGFBP7 (11715501_s_at) / Fold change /veh IGFBP7 (11715501_s_at) / RFU REEP3 (11722064_at) / Fold change /veh REEP3 (11722064_at) / RFU IGLL1 (11728026_x_at) / Fold change /veh IGLL1 (11728026_x_at): dose or concentration left out as unconfirmed
Conditions: MV-4-11 cells, 48 hours

Question: How did the “Fold change /veh KRT8 (11758183_x_at)” value turn out when `Nc1ncn([C@@H]2O[C@H](CO)[C@@H](O)[C@H]2O)c(=O)n1` [azacitidine] was run?
Answer: 1.18
